Experimental data from article PMC9021288 (Nature Communications, 2022).
Where “and” joins values, the source holds several entries; their conditions need not be identical. Equal entries are not always repeated.

Assay: 7-day PK toxicity rat study
Assay type: in vivo, Wistar Han rats
Parameters: AUC(0 - t) / Cmax / Concentration (PK study): unit not given here
Description: See the summary of the study design in Supplementary Table 31. Nine-week-old Wistar (Crl:WI (Han)) rats were obtained from Charles River Laboratories (Domaine des Oncins, Saint-Germain-Nuelles, France). […] Animals were examined daily for any altered clinical signs, body weights, and food consumption. Blood samples were taken at different timepoints after the test item administration, and toxicokinetic exposure assessed under the defined experimental conditions and analyzed using Phoenix (version 6.4 and 1.4) (Supplementary Table 32). Measurements included hematology and clinical chemistry measurements. Animals were euthanized and necropsied at the end of the dosing period. At necropsy, major organ systems and tissues were collected and weighed and then examined for gross lesions as well as for microscopic changes.

C[C@@H](CNC(=O)[C@H](O)C(C)(C)CO)NC(=O)c1cc(F)c(F)cc1F [MMV693183]
mortality (60, 200 mg/kg/day, 7 days): no mortality occurred
Liver weight (PK 60 mg/kg/day, Females): 6.5972 g
Liver weight (PK 60 mg/kg/day, Males): 11.4290 g
Liver weight (PK 200 mg/kg/day, Females): 8.4371 g
Liver weight (PK 200 mg/kg/day, Males): 13.5439 g
Concentration (PK study) (PK study, Females 60 mg/kg/day, Day 4, 8 hr): 867 and 896 and 826
Concentration (PK study) (PK study, Females 60 mg/kg/day, Day 5, 8 hr): 531 and 997 and 950
Concentration (PK study) (PK study, Females 60 mg/kg/day, Day 6, 8 hr): 642 and 776
Concentration (PK study) (PK study, Females 60 mg/kg/day, Day 7, 8 hr): 936 and 1060 and 1050
Concentration (PK study) (PK study, Females 200 mg/kg/day, Day 1, 0.5 hr): 81400 and 80500 and 68400
Concentration (PK study) (PK study, Females 200 mg/kg/day, Day 1, 1 hr): 65500 and 65700 and 66800
Concentration (PK study) (PK study, Females 200 mg/kg/day, Day 1, 4 hr): 12200 and 17800 and 10500
Concentration (PK study) (PK study, Females 200 mg/kg/day, Day 3, 0.5 hr): 70400 and 75700 and 61100
Concentration (PK study) (PK study, Females 200 mg/kg/day, Day 3, 2 hr): 18000 and 10900 and 12000
Concentration (PK study) (PK study, Females 200 mg/kg/day, Day 3, 8 hr): 2420 and 2030 and 1670
Concentration (PK study) (PK study, Females 200 mg/kg/day, Day 4, 0.5 hr): 47900 and 69400 and 35700
Concentration (PK study) (PK study, Females 200 mg/kg/day, Day 4, 8 hr): 1340 and 729 and 914
Concentration (PK study) (PK study, Females 200 mg/kg/day, Day 4, 24 hr): LLoQ
Concentration (PK study) (PK study, Females 200 mg/kg/day, Day 5, 2 hr): 3640 and 1960 and 3540
Concentration (PK study) (PK study, Females 200 mg/kg/day, Day 5, 24 hr): LLoQ
Concentration (PK study) (PK study, Females 200 mg/kg/day, Day 6, 0.5 hr): 17200 and 19900 and 13800
Concentration (PK study) (PK study, Females 200 mg/kg/day, Day 6, 1 hr): 5360 and 3620 and 4830
Concentration (PK study) (PK study, Females 200 mg/kg/day, Day 6, 2 hr): 2060 and 2560
Concentration (PK study) (PK study, Females 200 mg/kg/day, Day 6, 4 hr): 1070 and 1300 and 1240
Concentration (PK study) (PK study, Females 200 mg/kg/day, Day 6, 24 hr): LLoQ
Concentration (PK study) (PK study, Females 200 mg/kg/day, Day 7, 0.5 hr): 16600 and 15200 and 10900
Concentration (PK study) (PK study, Females 200 mg/kg/day, Day 7, 1 hr): 7160 and 4910 and 4560
Concentration (PK study) (PK study, Females 200 mg/kg/day, Day 7, 8 hr): 446 and 524 and 294
Concentration (PK study) (PK study, Females 200 mg/kg/day, Day 7, 24 hr): LLoQ
Concentration (PK study) (PK study, Males 60 mg/kg/day, Day 1, 1 hr): 20300 and 24600 and 25700
Concentration (PK study) (PK study, Males 60 mg/kg/day, Day 1, 2 hr): 8920
Concentration (PK study) (PK study, Males 60 mg/kg/day, Day 1, 8 hr): 595 and 761 and 549
Concentration (PK study) (PK study, Males 60 mg/kg/day, Day 3, 0.5 hr): 8790 and 10300 and 7140
Concentration (PK study) (PK study, Males 60 mg/kg/day, Day 3, 1 hr): 5740 and 6580 and 9120
Concentration (PK study) (PK study, Males 60 mg/kg/day, Day 4, 1 hr): 4970 and 6410 and 5310
Concentration (PK study) (PK study, Males 60 mg/kg/day, Day 4, 2 hr): 2150
Concentration (PK study) (PK study, Males 60 mg/kg/day, Day 5, 0.5 hr): 4090 and 5780 and 6430
Concentration (PK study) (PK study, Males 60 mg/kg/day, Day 5, 1 hr): 2810 and 3810 and 4490
Concentration (PK study) (PK study, Males 60 mg/kg/day, Day 5, 2 hr): 833
Concentration (PK study) (PK study, Males 60 mg/kg/day, Day 6, 0.5 hr): 3190 and 3990 and 2700
Concentration (PK study) (PK study, Males 60 mg/kg/day, Day 6, 1 hr): 2440 and 2560 and 2960
Concentration (PK study) (PK study, Males 60 mg/kg/day, Day 6, 2 hr): 793
Concentration (PK study) (PK study, Males 60 mg/kg/day, Day 7, 0.5 hr): 4630 and 4120 and 3030
Concentration (PK study) (PK study, Males 60 mg/kg/day, Day 7, 1 hr): 2360 and 3070 and 4490
Concentration (PK study) (PK study, Males 60 mg/kg/day, Day 7, 2 hr): 852
Liver weight (PK study, females, 60 mg/kg/day, individual animals): 7.845 g and 6.555 g and 7.19 g and 6.045 g and 7.197 g and 6.726 g and 6.103 g and 6.171 g and 6.163 g and 5.278 g and 7.062 g and 7.17 g and 6.744 g and 6.318 g and 6.169 g and 6.575 g and 6.983 g and 6.456 g
Liver weight (PK study, females, 200 mg/kg/day, individual animals): 8.221 g and 8.493 g and 7.964 g and 8.859 g and 9.347 g and 7.27 g and 8.193 g and 8.745 g and 8.636 g and 8.349 g and 8.711 g and 8.055 g and 7.728 g and 8.238 g and 8.802 g and 8.338 g and 9.482 g
Liver weight (PK study, males, 60 mg/kg/day, individual animals): 11.319 g and 10.601 g and 11.37 g and 12.154 g and 11.768 g and 12.437 g and 11.213 g and 11.313 g and 11.86 g and 10.827 g and 10.923 g and 10.921 g and 10.76 g and 12.104 g and 11.841 g and 10.238 g and 12.991 g and 11.082 g
Liver weight (PK study, males, 200 mg/kg/day, individual animals): 14.027 g and 16.129 g and 13.438 g and 12.573 g and 14.48 g and 14.447 g and 11.375 g and 14.317 g and 13.757 g and 13.38 g and 14.677 g and 13.312 g and 12.998 g and 12.7 g and 12.791 g and 13.174 g and 13.587 g and 12.628 g
decrease of exposure at later timepoints (day 3 to day 7 vs day 1): up to 11 fold
Increased mitoses, hepatocellular: animals affected (in order: females 60, 200 mg/kg/day): 1
Hypertrophy, centrilobular: animals affected (in order: males 60, 200 (n=18), females 60 (n=18), 200 (n=17) mg/kg/day): 18 and 14 and 17
Extramedullary hematopoiesis: animals affected (in order: males 60, 200, females 60, 200 mg/kg/day): 10 and 14 and 9 and 13
Necrosis, hepatocellular: animals affected (in order: males 60, females 60, 200 mg/kg/day): 1
